The values that follow come from patent US10487117B2, “Antimicrobial peptide for nosocomial infections” (priority 2015, dated 2019).

Molecules are shown by their SMILES. Like-named read-outs stand apart in the source and are kept apart here. Residues, ends and D or L forms follow the SMILES beside them.

Format in all cases: cell-based, Pseudomonas aeruginosa
In assay [1] the test system is planktonic P. aeruginosa. As for the experimental part:
The microbial cell viability was then assayed using the BacTiter-Glo™ luminescent kit. […] No cell reduction was detected for the peptide GL-13 even for the maximum concentration assayed (50 μM).
Bacterial viability was assayed using the BacTiter-Glo™ microbial cell viability kit. Briefly, protein/peptides were dissolved in 10 mM sodium phosphate, 0.1M buffer, pH 7.5, serially diluted from 50 to 0.1 μM and tested in a 96-well microtiter plate containing P. aeruginosa planktonic (OD600˜0.2) or 24 h formed biofilm for 4 h at 37° C. Fifty microliters of BacTiter-Glo™ reagent was added to each well according to the manufacturer's instructions and incubated at room temperature for 15 min. Luminescence was read on a Victor3 plate reader with a 3-s integration time. Fifty percent (ED50) and total inhibitory concentrations were calculated by fitting the data to a dose-response curve.

Assay [2] has as its system planktonic P. aeruginosa. The assay is described as follows: DiSC3(5) cytoplasmic membrane depolarization assay, planktonic. To be noted: for Depolarization %max: 10% Triton X-100 as maximum reference. Here is the method:
To further investigate the antimicrobial mechanism of action of the peptide, its ability to depolarize P. aeruginosa membranes was evaluated. Depolarization activity was analyzed by the DiSC3(5) assay (Table 5). DiSC3(5) is a fluorescent probe, which is sensitive to membrane potential. The DiSC3(5) fluorescence is quenched upon interaction with intact cell membranes. When the membrane potential is lost, the probe is released to the medium, resulting in an increase of fluorescence that can be recorded as a function of peptide concentration. Thus, the half depolarization action (ED50) was evaluated, defined as the peptide concentration needed to achieve a half-depolarization effect, and the total depolarization activity at final incubation time (Table 3).
Membrane depolarization was followed using the method described earlier (Torrent M. et al. 2008). Briefly, bacterial cells were grown at 37° C. to an OD600=0.2, centrifuged at 5000×g for 7 min, washed with 5 mM Hepes at pH 7.2 containing 20 mM glucose, and resuspended in 5 mM Hepes-KOH, 20 mM glucose, and 100 mM KCl at pH 7.2 to an OD600=0.05 and 200 μl were transferred to a microtiter plate for planktonic assays. For biofilm assay, 24 h formed P. aeruginosa biofilm in a 96-well microtiter plate were washed three times with sterile PBS. Afterwards P. aeruginosa biofilms were washed with 5 mM Hepes at pH 7.2 containing 20 mM glucose, and rinsed in 5 mM Hepes-KOH, 20 mM glucose, and 100 mM KCl at pH 7.2. In both cases, DiSC3(5) was added to a final concentration of 0.4 μM and changes in the fluorescence were continuously recorded after addition of peptides at 10 μM in a Victor3 plate reader. A maximum reference value for total depolarization is calculated for Triton X-100 at 10%. Alternatively, changes in the fluorescence were continuously recorded after addition of a serially diluted protein/peptides from 50 to 0.1 μM. The peptide concentration required to achieve half of total and total membrane depolarization after 40 min incubation time was estimated from nonlinear regression analysis as previously described (Torrent M. et al. 2010)

Assay [3] relates to pre-established P. aeruginosa biofilm. The assay is described as follows: Biofilm eradication assay, crystal violet staining. Conditions: 24 h formed biofilm; 4 h at 37° C.; 10% Triton X-100 as maximum reference. Here is the method:
Following, the biofilm eradication activity was determined (FIG. 1 and Table 6). […] Moreover, the biofilm eradication activity of all the tested reference peptides was well above the maximum concentration tested (50 μM), except for RN3(5-17P22-36) which was able to eradicate the biofilm close to 50 μM.
Biofilm formation assay was modified from the previously described protocol (Huedo P. et al. 2014). Briefly, overnight cultures of P. aeruginosa were centrifuged at 5000×g for 5 min, washed and adjusted to an OD600=0.1 in tryptic soy medium (TSB). Two hundred microliters of the bacterial suspension were dispensed in each well of a polystyrene 96-well microtiter plate (Greiner Bio-one, France). The plate was incubated at 37° C. on an orbital shaker (30 rpm). The media was exchanged with fresh pre-warmed TSB after 4 h, in order to remove the non-attached bacteria. After 24 h incubation, the formation of biofilm was then evaluated using the crystal violet staining technique (Stepanovic S. et al. 2000). Briefly, the plates were washed three times with PBS, fixed at 60° C. for 1 h, and stained for 15 min with 200 μl of 0.1% crystal violet. After the dye was discarded, plates were rinsed in PBS and allowed to dry for 30 min at 37° C. Crystal violet was dissolved in 250 μl of 95% ethanol for 15 min, and the OD570 of the extracted dye was measured using a Victor3 plate reader (Perkin-Elmer, Waltham, Mass.).
Biofilms were grown as above. Twenty-four hour formed P. aeruginosa biofilm was washed three times with sterile PBS, and rinsed with 10 mM sodium phosphate buffer pH 7.5. Each well was treated with increasing protein/peptide concentrations (from 0.01 to 50 μM) and incubated at 37° C. for 4 h. The biofilm eradication was then evaluated using the crystal violet staining technique (Stepanovic S. et al. 2000). The ability of the antimicrobial peptides to disperse and reduce the biofilm mass of preformed biofilms was calculated. The peptide concentration required to achieve total preformed biofilm eradication after 4 h incubation time was estimated. A maximum reference value was taken for Triton X-100 at 10%. The minimum biofilm eradication concentration (MBEC), defined as the protein/peptide concentration where the 99.9% of the biofilm mass is eradicated was estimated.

The test system of assay [4] is planktonic P. aeruginosa. Description: SYTOX Green membrane permeabilization assay, planktonic. To be noted: for Permeabilization %max: 10% Triton X-100 as maximum reference. As for the experimental part:
Further insight into the membrane-permeabilizing effect of the selected AMPs against P. aeruginosa was evaluated by the Sytox Green assay. Local membrane disturbances allow the cell uptake of the fluorescent Sytox Green dye that subsequently stains the cell nucleic acids; the fluorescence increase is registered to monitor the cell membrane permeabilization. Therefore, the half permeabilization action (ED50) was measured, and the total permeabilization activity expressed as a percentage (Table 5). […] On the other hand, WY-12 and CA-M required a 6- to 7-fold greater concentration than RNase 3 to produce half of their permeabilizing effect.
Membrane permeabilization was followed using the method SYTOX Green Fluorescence membrane permeabilization assay. In the planktonic assay, bacterial cells were grown at 37° C. to an OD600=0.2, centrifuged at 5000×g for 5 min, and resuspended in 1×PBS to an OD600=0.2. An aliquot of 200 μl was then transferred to a microtiter plate. For biofilm assay, 24 h formed P. aeruginosa biofilm in a 96-well microtiter plate were washed three times with sterile PBS. SYTOX Green was added to a final concentration of 1 μM and incubated 15 min in darkness. Changes in the fluorescence were continuously recorded after addition of a serially diluted protein/peptides from 50 to 0.1 μM in a Victor3 plate reader. The peptide concentration required to achieve half of total and total membrane permeabilization achieved after 40 min was estimated from nonlinear regression analysis as previously described (Pulido D. et al. Antimicrob Agents Chemother 2013). A maximum reference value was taken for Triton X-100 at 10%.

[5] abbreviates: planktonic P. aeruginosa, 4 h at 37° C., mean ± SEM, N.D. = not detected at 50 μM, read-out: IC50 (50% bacterial viability).
Setting [6] is: 40 min, N.D. = not detected at 50 μM.

With `CC[C@H](C)[C@H](NC(=O)[C@H](CCCCN)NC(=O)[C@H](CCC(=O)O)NC(=O)[C@H](CCCCN)NC(=O)[C@H](CO)NC(=O)[C@H](CCCCN)NC(=O)[C@H](CCCNC(=N)N)NC(=O)[C@H](Cc1ccccc1)NC(=O)[C@H](Cc1ccccc1)NC(=O)[C@H](CC(=O)O)NC(=O)CNC(=O)[C@H](CC(C)C)NC(=O)[C@@H](N)CC(C)C)C(=O)NCC(=O)N[C@@H](CCCCN)C(=O)N[C@@H](CCC(=O)O)C(=O)N[C@@H](Cc1ccccc1)C(=O)N[C@@H](CCCCN)C(=O)N[C@@H](CCCNC(=N)N)C(=O)N[C@H](C(=O)N[C@H](C(=O)N[C@@H](CCC(N)=O)C(=O)N[C@@H](CCCNC(=N)N)C(=O)N[C@H](C(=O)N[C@@H](CCCCN)C(=O)N[C@@H](CC(=O)O)C(=O)N[C@@H](Cc1ccccc1)C(=O)N[C@@H](CC(C)C)C(=O)N[C@@H](CCCNC(=N)N)C(=O)N[C@@H](CC(N)=O)C(=O)N[C@@H](CC(C)C)C(=O)N[C@H](C(=O)N1CCC[C@H]1C(=O)N[C@@H](CCCNC(=N)N)C(=O)N[C@H](C(=O)N[C@@H](CCC(=O)O)C(=O)N[C@@H](CO)C(N)=O)[C@@H](C)O)C(C)C)[C@@H](C)CC)C(C)C)[C@@H](C)CC` [LL-37], the concentration for half-maximal inhibition (IC50) in assay [1] (setting [5]) was 2280 ± 220 nM. The compound also gave a Depolarization %max in assay [2] of 28.24 ± 2.91%. Besides, the “Biofilm eradication (%max)” value in assay [3] turned out to be 35.54 ± 1.13%. Also, the Permeabilization %max in assay [4] was 38.80 ± 1.13%.
As to `CC[C@H](C)[C@H](NC(=O)CNC(=O)[C@@H](NC(=O)[C@H](CCCCN)NC(=O)[C@H](CCCCN)NC(=O)[C@H](Cc1ccccc1)NC(=O)[C@H](CC(C)C)NC(=O)[C@H](CCCCN)NC(=O)[C@H](Cc1c[nH]c2ccccc12)NC(=O)[C@@H](N)CCCCN)[C@@H](C)CC)C(=O)NCC(=O)N[C@@H](C)C(=O)N[C@H](C(=O)N[C@@H](CC(C)C)C(=O)N[C@@H](CCCCN)C(=O)N[C@H](C(=O)N[C@@H](CC(C)C)C(=O)N[C@H](C(=O)N[C@H](C(=O)NCC(=O)N[C@@H](CC(C)C)C(=O)N1CCC[C@H]1C(=O)N[C@@H](C)C(=O)N[C@@H](CC(C)C)C(=O)N[C@H](C(=O)N[C@@H](CO)C(N)=O)[C@@H](C)CC)[C@@H](C)O)[C@@H](C)O)C(C)C)C(C)C` [CA-M], the IC50 in assay [1] (setting [5]) was 2540 ± 1080 nM. The compound further returned a Depolarization %max in assay [2] of 71.36 ± 7.60%. Further, in assay [3], the “Biofilm eradication (%max)” value came to 53.03 ± 1.46%. Also, the Permeabilization %max in assay [4] stood at 34.69 ± 2.18%.
`CC[C@H](C)[C@H](NC(=O)[C@H](CCC(N)=O)NC(=O)CN)C(=O)N[C@H](C(=O)N[C@@H](CC(N)=O)C(=O)N[C@@H](CC(C)C)C(=O)N[C@@H](CCCCN)C(=O)N[C@@H](C)C(=O)N[C@@H](CO)C(=O)N[C@@H](CC(C)C)C(=O)N[C@@H](CC(=O)O)C(=O)N[C@@H](CC(C)C)C(=O)N[C@@H](CC(C)C)C(N)=O)[C@@H](C)CC` [GL-13, GQIINLKASLDLL-NH2] (H-GQIINLKASLDLL-NH2) yielded an IC50 in assay [1] (planktonic, 4 h) of more than 50000 nM. Further, the “Depolarization ED50” value in assay [2] (setting [6]) is reported as “not able to produce any depolarization effect”. In addition, in assay [3], the “Biofilm eradication (%max)” value was 33.28 ± 1.07%. The “Permeabilization ED50” value in assay [4] (setting [6]) is reported as “unable to perform any cell membrane permeabilization”.

The term IC50 denotes the concentration that gives 50% inhibition.
